Data from US20240279215A1 (Cytokinetics, Incorporated, priority 2022, published 2024).

Target: human NAMPT (Homo sapiens (Human), UniProt P43490)
Assay: NMN fluorescence biochemical assay (human recombinant NAMPT enzyme assay)
How it was run: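 NMN formed was detected by fluorescence (Ex/Em 355/460 nm) after acetophenone, KOH and formic acid derivatization. The cell-free reaction ran 60 min at ambient temperature with 6 nM human NAMPT, 150 μM nicotinamide, 20 μM PRPP, 2.5 mM ATP, pH 7.2 HEPES, and compound dose responses.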

Sequence of human NAMPT (P43490 whole entry): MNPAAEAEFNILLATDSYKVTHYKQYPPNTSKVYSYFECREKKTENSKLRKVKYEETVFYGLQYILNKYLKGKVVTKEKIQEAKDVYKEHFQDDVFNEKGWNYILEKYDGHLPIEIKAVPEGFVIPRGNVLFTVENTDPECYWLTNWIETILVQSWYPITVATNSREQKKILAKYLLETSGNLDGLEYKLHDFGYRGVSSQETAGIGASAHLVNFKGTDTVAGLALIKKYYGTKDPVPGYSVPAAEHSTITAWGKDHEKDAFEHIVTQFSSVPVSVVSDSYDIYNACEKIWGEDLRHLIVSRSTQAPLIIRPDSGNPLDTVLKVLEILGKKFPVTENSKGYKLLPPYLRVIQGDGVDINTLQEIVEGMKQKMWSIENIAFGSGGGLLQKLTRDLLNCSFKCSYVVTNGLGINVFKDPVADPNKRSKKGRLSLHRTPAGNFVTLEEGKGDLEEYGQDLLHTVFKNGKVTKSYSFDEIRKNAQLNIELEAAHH

Structure (SMILES)	AC1.4 Human [µM]	EC50 [µM]
CN([C@@H]1CCOC1)S(=O)(=O)c1ccc(NC(=O)OCc2ccc(Cl)cc2)cc1 [Compound 337, 4-chlorobenzyl (R)-(4-(N-methyl-N-(tetrahydrofuran-3-yl)sulfamoyl)phenyl)carbamate]	10.15	26.4
O=C(Cc1ccc(NC(=O)OCc2ccc(Cl)cc2)cc1)N[C@H]1CC[C@H](OC(F)(F)F)CC1 [Compound 338, (4-chlorophenyl)methyl N-[4-({[(1r,4r)-4-(trifluoromethoxy)cyclohexyl]carbamoyl}methyl)phenyl]carbamate]	10.44	18.4
O=C(Cc1ccc(NC(=O)OCc2ccc(Cl)cc2)cc1)NC1COC1 [Compound 339, 4-chlorobenzyl (4-(2-(oxetan-3-ylamino)-2-oxoethyl)phenyl)carbamate]	10.65	45.5
Cc1ocnc1C(=O)N(C)Cc1ccc(NC(=O)OCc2ccc(Cl)cc2)cc1 [Compound 340, (4-chlorophenyl)methyl N-(4-{[N-methyl-1-(5-methyl-1,3-oxazol-4-yl)formamido]methyl}phenyl)carbamate]	10.65	45.6
COc1ccc(COC(=O)Nc2ccc([C@H](C)C(=O)N3CCC[C@H]3CO)cc2)cc1 [Compound 341]	11.08	55.6
O=C(Nc1ccc(CNC(=O)c2ocnc2C2CC2)cc1)OCc1ccc(Cl)cc1 [Compound 343, (4-chlorophenyl)methyl N-(4-{[(4-cyclopropyl-1,3-oxazol-5-yl)formamido]methyl}phenyl)carbamate]	11.85	21.9
Cc1noc(Cc2ccc(NC(=O)OCc3ccc(Cl)cc3)cc2)n1 [Compound 344, (4-chlorophenyl)methyl N-{4-[(3-methyl-1,2,4-oxadiazol-5-yl)methyl]phenyl}carbamate]	13.04	34
Cn1nc(C(F)F)cc1C(=O)NCc1ccc(NC(=O)OCc2ccc(Cl)cc2)cc1 [Compound 345, (4-chlorophenyl)methyl N-[4-({[5-(difluoromethyl)-2-methylpyrazol-3-yl]formamido}methyl)phenyl]carbamate]	13.49	20.3
O=C1CN(C2COC2)[C@@H](c2ccc(NC(=O)OCc3ccc(Cl)cc3)cc2)CN1 [Compound 346, 4-chlorobenzyl (S)-(4-(1-(oxetan-3-yl)-5-oxopiperazin-2-yl)phenyl)carbamate]	13.52	45.3
CCc1ncoc1C(=O)NCc1ccc(NC(=O)OCc2ccc(Cl)cc2)cc1 [Compound 347, (4-chlorophenyl)methyl N-(4-{[(4-ethyl-1,3-oxazol-5-yl)formamido]methyl}phenyl)carbamate]	13.92	34.8
COCCN1CCC(c2ccc(NC(=O)OCc3cnco3)cc2)CC1 [Compound 348, 1,3-oxazol-5-ylmethyl N-{4-[1-(2-methoxyethyl)piperidin-4-yl]phenyl}carbamate]	14.47	35.9
O=C(Nc1ccc(Cc2ccncc2)cc1)OCc1ccncn1 [Compound 349, pyrimidin-4-ylmethyl (4-(pyridin-4-ylmethyl)phenyl)carbamate]	15.55	26
O=C(Nc1ccc(Cc2ccns2)cc1)OCc1ccc(Cl)cc1 [Compound 350, 4-chlorobenzyl (4-(isothiazol-5-ylmethyl)phenyl)carbamate]	20.27	44.4
O=C(Nc1ccc(Cc2cncs2)cc1)OCc1ccc(Cl)cc1 [Compound 351, 4-chlorobenzyl (4-(thiazol-5-ylmethyl)phenyl)carbamate]	22.18	37.3
CN(C1COC1)S(=O)(=O)c1ccc(NC(=O)OCc2ccc(Cl)cc2)cc1 [Compound 352, 4-chlorobenzyl (4-(N-methyl-N-(oxetan-3-yl)sulfamoyl)phenyl)carbamate]	22.88	46.3
O=C(Nc1ccc(Cc2cocn2)cc1)OCc1ccc(Cl)cc1 [Compound 353, 4-chlorobenzyl (4-(oxazol-4-ylmethyl)phenyl)]	23.63	24.3
O=C(Nc1ccc(COC2CN(C3COC3)C2)cc1)OCc1ccc(Cl)cc1 [Compound 354, 4-chlorobenzyl (4-(((1-(oxetan-3-yl)azetidin-3-yl)oxy)methyl)phenyl)carbamate]	23.64	38.8
Cn1cc(COC(=O)Nc2ccc(Cc3ccncc3)cc2)cn1 [Compound 355, (1-methyl-1H-pyrazol-4-yl)methyl (4-(pyridin-4-ylmethyl)phenyl)carbamate]	25.86	4.96
Cc1ccc(S(=O)(=O)NCc2ccc(NC(=O)OCc3ccc(Cl)cc3)cc2)cn1 [Compound 356, (4-chlorophenyl)methyl N-{4-[(6-methylpyridine-3-sulfonamido)methyl]phenyl}carbamate]	29.04	18.2
CC(C)C(=O)N1CC2(CC(c3ccc(NC(=O)OCc4cnco4)cc3)C2)C1 [Compound 357, oxazol-5-ylmethyl (4-(2-isobutyryl-2-azaspiro[3.3]heptan-6-yl)phenyl)carbamate]	1.09	39.9
CC(=O)N1CC2(CC(c3ccc(NC(=O)OCc4cnco4)cc3)C2)C1 [Compound 358, oxazol-5-ylmethyl (4-(2-acetyl-2-azaspiro[3.3]heptan-6-yl)phenyl)carbamate]	0.25	28.9
CS(=O)(=O)N1CCC[C@H](c2ccc(NC(=O)OCc3cnco3)cc2)C1 [Compound 365, oxazol-5-ylmethyl (R)-(4-(1-(methylsulfonyl)piperidin-3-yl)phenyl)carbamate]	0.33	38.6
CN(C)S(=O)(=O)N1CCC[C@H](c2ccc(NC(=O)OCc3cnco3)cc2)C1 [Compound 366, oxazol-5-ylmethyl (R)-(4-(1-(N,N-dimethylsulfamoyl)piperidin-3-yl)phenyl)carbamate]	0.15	10.2

The next lines start with the values.

AC1.4 Human [µM]	EC50 [µM]	Structure (SMILES)
0.07	4.77	CCC(=O)N1CCC2(CC(Cc3ccc(NC(=O)OCc4cnco4)cc3F)C2)C1 (stereo not drawn) [Compound 367, oxazol-5-ylmethyl (3-fluoro-4-((6-propionyl-6-azaspiro[3.4]octan-2-yl)methyl)phenyl)carbamate]
0.09	2.93	CC(C)C(=O)N1CCC2(CC(Cc3ccc(NC(=O)OCc4cnco4)cc3F)C2)C1 (stereo not drawn) [Compound 368, oxazol-5-ylmethyl (3-fluoro-4-((6-isobutyryl-6-azaspiro[3.4]octan-2-yl)methyl)phenyl)carbamate]
0.16	4.36	CCS(=O)(=O)N1CCC2(CC(Cc3ccc(NC(=O)OCc4cnco4)cc3F)C2)C1 (stereo not drawn) [Compound 369, oxazol-5-ylmethyl (3-fluoro-4-((6-(ethylsulfonyl)-6-azaspiro[3.4]octan-2-yl)methyl)phenyl)carbamate]
0.13	5.8	CS(=O)(=O)N1CCC2(CC(Cc3ccc(NC(=O)OCc4cnco4)cc3F)C2)C1 (stereo not drawn) [Compound 370, oxazol-5-ylmethyl (3-fluoro-4-((6-(methylsulfonyl)-6-azaspiro[3.4]octan-2-yl)methyl)phenyl)carbamate]
0.27	4.57	COC(=O)N1CCC2(CC(Cc3ccc(NC(=O)OCc4cnco4)cc3F)C2)C1 (stereo not drawn) [Compound 371, methyl 2-(2-fluoro-4-(((oxazol-5-ylmethoxy)carbonyl)amino)benzyl)-6-azaspiro[3.4]octane-6-carboxylate]
0.08	4.17	CC(=O)N1CCC2(CC(Cc3ccc(NC(=O)OCc4cnco4)cc3F)C2)C1 (stereo not drawn) [Compound 374, oxazol-5-ylmethyl (4-((6-acetyl-6-azaspiro[3.4]octan-2-yl)methyl)-3-fluorophenyl)carbamate]
1.32	53.8	CC(=O)N1CCC[C@H](c2ccc(NC(=O)OCc3cnco3)cc2)C1 [Compound 375, oxazol-5-ylmethyl (R)-(4-(1-acetylpiperidin-3-yl)phenyl)carbamate]
1.08	9.37	CC(C)(C)OC(=O)N1CCC2(CC(Cc3ccc(NC(=O)OCc4cnco4)cc3F)C2)C1 (stereo not drawn) [Compound 377, tert-butyl 2-(2-fluoro-4-(((oxazol-5-ylmethoxy)carbonyl)amino)benzyl)-6-azaspiro[3.4]octane-6-carboxylate]
0.38	18.6	O=C(Nc1ccc(CC2CC3(CCNC3)C2)c(F)c1)OCc1cnco1 (stereo not drawn) [Compound 378, oxazol-5-ylmethyl (4-((6-azaspiro[3.4]octan-2-yl)methyl)-3-fluorophenyl)carbamate]
0.12	2.96	CN(C)C(=O)N1CCC2(CC(Cc3ccc(NC(=O)OCc4cnco4)cc3F)C2)C1 (stereo not drawn) [Compound 379, oxazol-5-ylmethyl (4-((6-(dimethylcarbamoyl)-6-azaspiro[3.4]octan-2-yl)methyl)-3-fluorophenyl)carbamate]
0.84	41.5	O=C(Nc1ccc([C@@H]2CCCN(C3COC3)C2)cc1)OCc1cnco1 [Compound 380, oxazol-5-ylmethyl (S)-(4-(1-(oxetan-3-yl)piperidin-3-yl)phenyl)carbamate]
3.37	17	CC(=O)N1CCC[C@@H](c2ccc(NC(=O)OCc3cnco3)cc2)C1 [Compound 381, oxazol-5-ylmethyl (S)-(4-(1-acetylpiperidin-3-yl)phenyl)carbamate]
0.35	22.4	CS(=O)(=O)N1CCC[C@@H](c2ccc(NC(=O)OCc3cnco3)cc2)C1 [Compound 382, oxazol-5-ylmethyl (S)-(4-(1-(methylsulfonyl)piperidin-3-yl)phenyl)carbamate]
